# From patent US11827627B2, “N-(hydroxyalkyl (hetero)aryl) tetrahydrofuran carboxamides as modulators of sodium channels” (VERTEX PHARMACEUTICALS INCORPORATED, priority 2021, dated 2023)
# Target: human NaV 1.8 (Homo sapiens, UniProt Q9Y5Y9)
# Experiment: E-VIPR assay detecting and measuring NaV inhibition properties
# Assay type: cell-based
# Details: HEK cells expressing a truncated form of human NaV 1.8; electrical stimulation, membrane potential FRET dyes
# Procedure, shortened: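 HEK cells expressing truncated full-activity NaV 1.8, co-transduced with KIR2.1 BacMam, seeded 16-20 h before assay. Electrical stimulation with FRET membrane-potential dyes (CC2-DMPE/DiSBAC6(3)) in HEPES-buffered bath solutions; 25% human serum final.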
# Sequence of human NaV 1.8 (Q9Y5Y9 126-1722 limits assumed): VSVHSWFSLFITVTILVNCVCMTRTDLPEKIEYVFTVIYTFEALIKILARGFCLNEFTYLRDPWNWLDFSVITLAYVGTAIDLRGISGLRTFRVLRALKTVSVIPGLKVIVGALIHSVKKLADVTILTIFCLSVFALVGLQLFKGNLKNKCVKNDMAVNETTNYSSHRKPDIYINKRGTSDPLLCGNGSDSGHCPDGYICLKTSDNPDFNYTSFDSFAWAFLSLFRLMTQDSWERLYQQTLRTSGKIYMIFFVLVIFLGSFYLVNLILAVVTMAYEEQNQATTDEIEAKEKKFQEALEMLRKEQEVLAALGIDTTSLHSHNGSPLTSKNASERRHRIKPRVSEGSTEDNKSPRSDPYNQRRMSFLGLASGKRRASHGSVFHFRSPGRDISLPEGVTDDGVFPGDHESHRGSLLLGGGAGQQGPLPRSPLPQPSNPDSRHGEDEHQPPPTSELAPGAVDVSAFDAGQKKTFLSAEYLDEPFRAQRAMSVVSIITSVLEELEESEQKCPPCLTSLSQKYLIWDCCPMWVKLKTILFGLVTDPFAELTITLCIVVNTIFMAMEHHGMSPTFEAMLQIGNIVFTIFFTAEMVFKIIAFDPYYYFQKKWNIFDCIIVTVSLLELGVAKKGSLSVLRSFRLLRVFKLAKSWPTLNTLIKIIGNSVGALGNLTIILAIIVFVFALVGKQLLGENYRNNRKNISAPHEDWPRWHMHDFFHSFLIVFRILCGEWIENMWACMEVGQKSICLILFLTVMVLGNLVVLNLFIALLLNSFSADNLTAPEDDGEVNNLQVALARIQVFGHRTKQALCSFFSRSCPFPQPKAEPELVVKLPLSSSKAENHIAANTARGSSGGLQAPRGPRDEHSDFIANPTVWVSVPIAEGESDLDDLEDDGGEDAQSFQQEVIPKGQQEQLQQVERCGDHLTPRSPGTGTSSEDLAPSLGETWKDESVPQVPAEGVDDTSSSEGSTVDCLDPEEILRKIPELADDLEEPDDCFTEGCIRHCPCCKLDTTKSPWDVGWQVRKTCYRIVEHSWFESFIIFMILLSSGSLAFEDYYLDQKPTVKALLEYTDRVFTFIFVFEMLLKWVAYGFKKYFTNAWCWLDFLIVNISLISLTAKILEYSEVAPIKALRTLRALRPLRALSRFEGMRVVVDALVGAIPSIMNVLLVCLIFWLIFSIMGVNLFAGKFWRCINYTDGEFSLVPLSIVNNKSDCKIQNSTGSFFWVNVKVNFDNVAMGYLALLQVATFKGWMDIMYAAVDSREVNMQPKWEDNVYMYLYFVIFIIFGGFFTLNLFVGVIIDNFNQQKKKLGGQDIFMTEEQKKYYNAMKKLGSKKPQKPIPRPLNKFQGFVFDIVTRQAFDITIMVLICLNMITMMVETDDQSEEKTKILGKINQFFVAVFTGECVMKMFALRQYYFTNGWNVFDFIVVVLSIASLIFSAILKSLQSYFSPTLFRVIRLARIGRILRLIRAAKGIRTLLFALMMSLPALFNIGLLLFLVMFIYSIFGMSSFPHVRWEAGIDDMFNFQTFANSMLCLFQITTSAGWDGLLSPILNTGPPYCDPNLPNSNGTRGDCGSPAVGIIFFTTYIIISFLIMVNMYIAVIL
row,IC50 [nM],SMILES
1,100 to 1000,"COc1nc(C(F)F)ccc1[C@H]1[C@H](C(=O)Nc2ccc(CO)nc2)O[C@@](C)(C(F)(F)F)[C@H]1C (stereo in doubt) [Compound 88, rel-(2R,3S,4S,5R)-3-(6-(difluoromethyl)-2-methoxypyridin-3-yl)-N-(6-(hydroxymethyl)pyridin-3-yl)-4,5-dimethyl-5-(trifluoromethyl)tetrahydrofuran-2-carboxamide]"
2,≥ 1000,"COc1nc(C(F)F)ccc1[C@@H]1[C@@H](C(=O)Nc2ccc(CO)nc2)O[C@](C)(C(F)(F)F)[C@@H]1C (stereo in doubt) [Compound 89, rel-(2S,3R,4R,5S)-3-(6-(difluoromethyl)-2-methoxypyridin-3-yl)-N-(6-(hydroxymethyl)pyridin-3-yl)-4,5-dimethyl-5-(trifluoromethyl)tetrahydrofuran-2-carboxamide]"
3,< 10,"CCOc1c([C@H]2[C@H](C(=O)Nc3ccc([C@H](O)CO)nc3)O[C@@](C)(C(F)(F)F)[C@H]2C)ccc(F)c1F [Compound 6, (2R,3S,4S,5R)-N-(6-((S)-1,2-dihydroxyethyl)pyridin-3-yl)-3-(2-ethoxy-3,4-difluorophenyl)-4,5-dimethyl-5-(trifluoromethyl)tetrahydrofuran-2-carboxamide]"
4,< 10,"CCOc1c([C@H]2[C@H](C(=O)Nc3ccc([C@@H](O)CO)nc3)O[C@@](C)(C(F)(F)F)[C@H]2C)ccc(F)c1F [Compound 7, (2R,3S,4S,5R)-N-(6-((R)-1,2-dihydroxyethyl)pyridin-3-yl)-3-(2-ethoxy-3,4-difluorophenyl)-4,5-dimethyl-5-(trifluoromethyl)tetrahydrofuran-2-carboxamide]"
5,< 10,"[2H]C([2H])([2H])Oc1c([C@H]2[C@H](C(=O)Nc3ccc([C@@H](O)CO)nc3)O[C@@](C)(C(F)(F)F)[C@H]2C)ccc(F)c1F [Compound 8, (2R,3S,4S,5R)-3-(3,4-difluoro-2-(methoxy-d3)phenyl)-N-(6-((R)-1,2-dihydroxyethyl)pyridin-3-yl)-4,5-dimethyl-5-(trifluoromethyl)tetrahydrofuran-2-carboxamide]"
6,10 to 100,CC(C)Oc1c(C2C(C(=O)Nc3cnc(C(O)CO)nc3)OC(C)(C(F)(F)F)C2C)ccc(F)c1F (centres unmarked) [Compound 9]
7,< 10,"COc1c([C@H]2[C@H](C(=O)Nc3ccc(CO)nc3)O[C@@](C)(C(F)(F)F)[C@H]2C)ccc(F)c1F [Compound 14, (2R,3S,4S,5R)-3-(3,4-difluoro-2-methoxyphenyl)-N-(6-(hydroxymethyl)pyridin-3-yl)-4,5-dimethyl-5-(trifluoromethyl)tetrahydrofuran-2-carboxamide]"
8,< 10,"COc1c([C@H]2[C@H](C(=O)Nc3cnc(CO)nc3)O[C@@](C)(C(F)(F)F)[C@H]2C)ccc(F)c1F [Compound 15, (2R,3S,4S,5R)-3-(3,4-difluoro-2-methoxyphenyl)-N-(2-(hydroxymethyl)pyrimidin-5-yl)-4,5-dimethyl-5-(trifluoromethyl)tetrahydrofuran-2-carboxamide]"
9,10 to 100,"COc1c([C@H]2[C@H](C(=O)Nc3ccc(CO)nc3)O[C@@](C)(C(F)(F)F)[C@H]2C)ccc(OC(F)F)c1F [Compound 18, (2R,3S,4S,5R)-3-(4-(difluoromethoxy)-3-fluoro-2-methoxyphenyl)-N-(6-(hydroxymethyl)pyridin-3-yl)-4,5-dimethyl-5-(trifluoromethyl)tetrahydrofuran-2-carboxamide]"
10,10 to 100,"COc1c([C@H]2[C@H](C(=O)Nc3cnc(CO)nc3)O[C@@](C)(C(F)(F)F)[C@H]2C)ccc(OC(F)F)c1F [Compound 19, (2R,3S,4S,5R)-3-(4-(difluoromethoxy)-3-fluoro-2-methoxyphenyl)-N-(2-(hydroxymethyl)pyrimidin-5-yl)-4,5-dimethyl-5-(trifluoromethyl)tetrahydrofuran-2-carboxamide]"
11,100 to 1000,"C[C@H]1[C@@H](c2ccc(F)c(F)c2O)[C@H](C(=O)Nc2ccc([C@@H](O)CO)nc2)O[C@@]1(C)C(F)(F)F [Compound 36, (2R,3S,4S,5R)-3-(3,4-difluoro-2-hydroxyphenyl)-N-(6-((R)-1,2-dihydroxyethyl)pyridin-3-yl)-4,5-dimethyl-5-(trifluoromethyl)tetrahydrofuran-2-carboxamide]"
12,< 10,"C[C@H]1[C@@H](c2ccc(F)c(F)c2OCCF)[C@H](C(=O)Nc2ccc([C@@H](O)CO)nc2)O[C@@]1(C)C(F)(F)F [Compound 37, (2R,3S,4S,5R)-3-(3,4-difluoro-2-(2-fluoroethoxy)phenyl)-N-(6-((R)-1,2-dihydroxyethyl)pyridin-3-yl)-4,5-dimethyl-5-(trifluoromethyl)tetrahydrofuran-2-carboxamide]"
13,< 10,"C[C@H]1[C@@H](c2ccc(F)c(F)c2OCC(F)F)[C@H](C(=O)Nc2ccc([C@@H](O)CO)nc2)O[C@@]1(C)C(F)(F)F [Compound 38, (2R,3S,4S,5R)-3-(2-(2,2-difluoroethoxy)-3,4-difluorophenyl)-N-(6-((R)-1,2-dihydroxyethyl)pyridin-3-yl)-4,5-dimethyl-5-(trifluoromethyl)tetrahydrofuran-2-carboxamide]"
14,≥ 1000,"C[C@H]1[C@@H](c2ccc(F)c(F)c2O)[C@H](C(=O)Nc2cnc(CO)nc2)O[C@@]1(C)C(F)(F)F [Compound 39, (2R,3S,4S,5R)-3-(3,4-difluoro-2-hydroxyphenyl)-N-(2-(hydroxymethyl)pyrimidin-5-yl)-4,5-dimethyl-5-(trifluoromethyl)tetrahydrofuran-2-carboxamide]"
15,< 10,"COc1c([C@H]2[C@H](C(=O)Nc3ccc([C@@H](O)CO)[n+]([O-])c3)O[C@@](C)(C(F)(F)F)[C@H]2C)ccc(F)c1F [Compound 60, 5-((2R,3S,4S,5R)-3-(3,4-difluoro-2-methoxyphenyl)-4,5-dimethyl-5-(trifluoromethyl)tetrahydrofuran-2-carboxamido)-2-((R)-1,2-dihydroxyethyl)pyridine 1-oxide]"
16,< 10,"COc1c([C@H]2[C@H](C(=O)Nc3cnc(CO)c(F)c3)O[C@@](C)(C(F)(F)F)[C@H]2C)ccc(F)c1F [Compound 83, (2R,3S,4S,5R)-3-(3,4-difluoro-2-methoxyphenyl)-N-(5-fluoro-6-(hydroxymethyl)pyridin-3-yl)-4,5-dimethyl-5-(trifluoromethyl)tetrahydrofuran-2-carboxamide]"
17,< 10,"COc1c([C@H]2[C@H](C(=O)Nc3ccc([C@@H](C)O)nc3)O[C@@](C)(C(F)(F)F)[C@H]2C)ccc(F)c1F [Compound 84, (2R,3S,4S,5R)-3-(3,4-difluoro-2-methoxyphenyl)-N-(6-((R)-1-hydroxyethyl)pyridin-3-yl)-4,5-dimethyl-5-(trifluoromethyl)tetrahydrofuran-2-carboxamide]"
18,10 to 100,"COc1c([C@H]2[C@H](C(=O)Nc3ccc([C@H](C)O)nc3)O[C@@](C)(C(F)(F)F)[C@H]2C)ccc(F)c1F [Compound 85, (2R,3S,4S,5R)-3-(3,4-difluoro-2-methoxyphenyl)-N-(6-((S)-1-hydroxyethyl)pyridin-3-yl)-4,5-dimethyl-5-(trifluoromethyl)tetrahydrofuran-2-carboxamide]"
19,10 to 100,"COc1c([C@H]2[C@H](C(=O)Nc3cnc(CO)cn3)O[C@@](C)(C(F)(F)F)[C@H]2C)ccc(F)c1F [Compound 86, (2R,3S,4S,5R)-3-(3,4-difluoro-2-methoxyphenyl)-N-(5-(hydroxymethyl)pyrazin-2-yl)-4,5-dimethyl-5-(trifluoromethyl)tetrahydrofuran-2-carboxamide]"
20,100 to 1000,"COc1c([C@H]2[C@H](C(=O)Nc3cnc(CO)c(CO)c3)O[C@@](C)(C(F)(F)F)[C@H]2C)ccc(F)c1F [Compound 87, (2R,3S,4S,5R)-N-(5,6-bis(hydroxymethyl)pyridin-3-yl)-3-(3,4-difluoro-2-methoxyphenyl)-4,5-dimethyl-5-(trifluoromethyl)tetrahydrofuran-2-carboxamide]"
